Data on 38 compounds can be found in ChEMBL document CHEMBL5042512 (Eur J Med Chem, 2022).

Holding throughout (type): functional, cell-based
The test system of one assay is MGC-803. Briefly: Antiproliferative activity against human MGC-803 cells assessed as cell growth inhibition measured after 48 hrs by CCK8 assay. The conditions noted are these: MGC-803, 48 h. Background: Tetrazolium assays rely on reduction of a dye to a coloured formazan, in cell work by metabolically active cells.
Another assay concerns KYSE-450. The assay can be described thus: Antiproliferative activity against human KYSE-450 cells assessed as cell growth inhibition measured after 48 hrs by CCK8 assay. The conditions noted are these: KYSE-450, 48 h.
The test system of the next assay is HCT-116. The assay can be described thus: Antiproliferative activity against human HCT-116 cells assessed as cell growth inhibition measured after 48 hrs by CCK8 assay. The conditions noted are these: HCT-116, 48 h.

pIC50: −log10 of the molar value.

For orientation: pIC50 means the IC50 on a negative log10 scale, so that one unit is a factor of ten. `COc1ccc(CN(C(=O)CSC(=S)N2CCN(C(=O)OC(C)(C)C)CC2)c2cc(OC)c(OC)c(OC)c2)cc1F`: the pIC50 in the assay with MGC-803 was 5.31; in the assay on KYSE-450, 5.62; in the assay on HCT-116 it was 5.09.

`COc1ccc(CN(C(=O)CSC(=S)N2CCN(C(=O)OC(C)(C)C)CC2)c2ccc(OC)cc2)cc1`: the pIC50 in the assay on MGC-803, with KYSE-450 and in the assay with HCT-116 was less than 4.70 each time.

Take `COc1ccc(CN(C(=O)CSC(=S)N2CCN(C(C)=O)CC2)c2cc(OC)c(OC)c(OC)c2)cc1`: the pIC50 with MGC-803 is 6.32; in the assay on KYSE-450, 6.43; with HCT-116 it was 5.86.

Turning to `CCN1CCN(C(=S)SCC(=O)N(Cc2ccc(OC)c(O)c2)c2cc(OC)c(OC)c(OC)c2)CC1`, the pIC50 is 6.42 in the assay with MGC-803, 6.49 with KYSE-450 and 6.28 in the assay on HCT-116.

On to `COc1ccc(CN(C(=O)CSC(=S)N2CCN(C)CC2)c2cc(OC)c(OC)c(OC)c2)cc1O`, for which the pIC50 in the assay on MGC-803 is 6.07; with KYSE-450 it was 6.12; in the assay on HCT-116 it was 6.09.

As for `COc1ccc(CN(C(=O)CSC(=S)N2CCc3ccccc32)c2cc(OC)c(OC)c(OC)c2)cc1`, the negative logarithm of the IC50 (pIC50) with MGC-803 is 5.08; in the assay with KYSE-450 it was 5.16; in the assay with HCT-116, 5.11.

In the case of `COc1ccc(CN(C(=O)CN2CCN(C(C)=O)CC2)c2cc(OC)c(OC)c(OC)c2)cc1`, the pIC50 in the assay on MGC-803 is 4.89; in the assay on KYSE-450, 4.97; in the assay on HCT-116, less than 4.70.

Take `COc1ccc(CN(C(=O)CN2CCN(C(=O)OC(C)(C)C)CC2)c2cc(OC)c(OC)c(OC)c2)cc1`: the values for the pIC50 with MGC-803, in the assay on KYSE-450 and in the assay with HCT-116 were 5.02, 5.09 and 4.74, respectively.

On to `COc1cc(N(Cc2ccc(C)cc2)C(=O)CSC(=S)N2CCN(C(=O)OC(C)(C)C)CC2)cc(OC)c1OC`, for which the pIC50 with MGC-803 was 4.78; in the assay on KYSE-450, less than 4.70; in the assay with HCT-116, less than 4.70.

As to `COc1ccc(CN(C(=O)CSC(=S)N2CCc3ccccc3C2)c2cc(OC)c(OC)c(OC)c2)cc1`, the pIC50 was 5.23 in the assay on MGC-803, less than 4.70 in the assay with KYSE-450 and 4.80 in the assay with HCT-116.

With `COc1ccc(CN(C(=O)CSC(=S)N2CCN(C(=O)OC(C)(C)C)CC2)c2cc(OC)c(OC)c(OC)c2)cc1OC`, the pIC50 in the assay on MGC-803, with KYSE-450 and with HCT-116 was less than 4.70 throughout.

As for `COc1ccc(CN(C(=O)CSC(=S)N2CCOCC2)c2cc(OC)c(OC)c(OC)c2)cc1`, the pIC50 with MGC-803 was 5.63; in the assay on KYSE-450, 5.14; in the assay with HCT-116 it was 5.38.

With `COc1ccc(CN(C(=O)CSC(=S)N2CCN(C(=O)OC(C)(C)C)CC2)c2cc(OC)c(OC)c(OC)c2)cc1C`, the pIC50 in the assay with MGC-803, in the assay on KYSE-450 and with HCT-116 was less than 4.70 throughout.

As to `COc1ccc(CN(C(=O)CSC(=S)N2CCN(C(=O)OC(C)(C)C)CC2)c2ccc(Br)cc2)cc1`, the pIC50 with MGC-803, in the assay with KYSE-450 and in the assay on HCT-116 was less than 4.70 in each case.

With `CCN1CCN(CC(=O)N(Cc2ccc(OC)cc2)c2cc(OC)c(OC)c(OC)c2)CC1`, the figures for the pIC50 in the assay with MGC-803, in the assay on KYSE-450 and in the assay on HCT-116 were less than 4.70, 4.79 and less than 4.70, respectively.

Take `COc1ccc(CN(C(=O)CSC(=S)N2CCc3cc(Br)ccc32)c2cc(OC)c(OC)c(OC)c2)cc1`: the figures for the negative logarithm of the IC50 (pIC50) with MGC-803, with KYSE-450 and in the assay with HCT-116 were less than 4.70, less than 4.70 and 5.09, respectively.

With `COc1ccc(CN(C(=O)CSc2nc3ccccc3o2)c2cc(OC)c(OC)c(OC)c2)cc1`, the pIC50 in the assay with KYSE-450 is 6.08; in the assay with HCT-116, 5.48.

Consider `CCN1CCN(C(=S)SCC(=O)N(Cc2ccc(OC)cc2)c2cc(OC)c(OC)c(OC)c2)CC1`, for which the values for the pIC50 with MGC-803, with KYSE-450 and in the assay with HCT-116 were 5.00, 5.51 and 5.11, respectively.

Turning to `COc1ccc(CN(C(=O)CN2CCOCC2)c2cc(OC)c(OC)c(OC)c2)cc1`, the pIC50 with MGC-803 was 4.77; in the assay with KYSE-450 it was 4.72; in the assay with HCT-116, less than 4.70.

As to `COc1ccc(CN(C(=O)CSC(=S)N2CCN(C(=O)OC(C)(C)C)CC2)c2cc(OC)c(OC)c(OC)c2)cc1`, the pIC50 in the assay on MGC-803 was 6.51; in the assay with KYSE-450, 6.60; in the assay on HCT-116 it was 6.21.

With `COc1ccc(CN(C(=O)CSC(=S)N2CCc3cc(OC)ccc32)c2cc(OC)c(OC)c(OC)c2)cc1`, the pIC50 is 4.93 in the assay on MGC-803, 4.99 in the assay on KYSE-450 and 5.01 in the assay on HCT-116.

Regarding `COc1ccc(CN(C(=O)CSC(=S)N2CCN(C(=O)OC(C)(C)C)CC2)c2cc(OC)c(OC)c(OC)c2)cc1[N+](=O)[O-]`, the figures for the pIC50 with MGC-803, in the assay with KYSE-450 and in the assay on HCT-116 were 6.06, 6.09 and 6.01, respectively.

With `COc1cc(N(Cc2ccc(Br)cc2)C(=O)CSC(=S)N2CCN(C(=O)OC(C)(C)C)CC2)cc(OC)c1OC`, the pIC50 in the assay with MGC-803 is 4.91; with KYSE-450 it was 4.97; in the assay with HCT-116, 4.94.

In the case of `COc1ccc(CN(C(=O)CSC(=S)N2CCN(C(=O)OC(C)(C)C)CC2)c2cc(OC)c(OC)c(OC)c2)cc1N=[N+]=[N-]`, the negative-log IC50 (pIC50) in the assay with MGC-803 is 6.09; in the assay with KYSE-450 it was 6.08; in the assay with HCT-116, 6.11.

Take `COc1ccc(CN(C(=O)CSC(=S)N2CCN(C(=O)OC(C)(C)C)CC2)c2ccc(Cl)cc2)cc1`: the pIC50 in the assay with MGC-803, with KYSE-450 and with HCT-116 was less than 4.70 each time.

Take `COc1ccc(CN(C(=O)CSC(=S)N2CCN(C(=O)OC(C)(C)C)CC2)c2ccc(C)cc2)cc1`: the pIC50 in the assay on MGC-803, with KYSE-450 and with HCT-116 was less than 4.70 in each case.

As to `COc1ccc(CN(C(=O)CSC(=S)N2CCCC2)c2cc(OC)c(OC)c(OC)c2)cc1`, the pIC50 is less than 4.70 in the assay on MGC-803, 4.86 in the assay on KYSE-450 and 5.30 in the assay with HCT-116.

Regarding `COc1ccc(CN(C(=O)CSC(=S)N2CCN(C(=O)OC(C)(C)C)CC2)c2cc(OC)c(OC)c(OC)c2)cc1Br`, the negative logarithm of the IC50 (pIC50) is 5.43 with MGC-803, 5.73 in the assay with KYSE-450 and 5.01 with HCT-116.

In the case of `COc1ccc(CN(C(=O)CSC(=S)N2CCCc3cc(OC)ccc32)c2cc(OC)c(OC)c(OC)c2)cc1`, the pIC50 in the assay on MGC-803 was 5.09; in the assay with KYSE-450 it was 5.26; with HCT-116 it was less than 4.70.

`COc1cc(N(Cc2ccc(Cl)cc2)C(=O)CSC(=S)N2CCN(C(=O)OC(C)(C)C)CC2)cc(OC)c1OC`: the pIC50 with MGC-803 is 4.89; in the assay with KYSE-450 it was 4.92; in the assay with HCT-116, 5.07.

Regarding `COc1cc2c(c(OC)c1OC)-c1ccc(OC)c(=O)cc1[C@@H](NC(C)=O)CC2` [COLCHICINE], the pIC50 in the assay on MGC-803 was 7.05; in the assay with KYSE-450, 6.66.

In the case of `COc1ccc(CN(C(=O)CSC(=S)N2CCN(C)CC2)c2cc(OC)c(OC)c(OC)c2)cc1`, the pIC50 in the assay with MGC-803 is 5.89; in the assay with KYSE-450, 5.90; in the assay on HCT-116, 5.58.

Turning to `COc1cc(NC(=O)CSC(=S)N2CCN(C(=O)OC(C)(C)C)CC2)c(Cc2ccccc2)c(OC)c1OC`, the pIC50 in the assay on MGC-803 was less than 4.70; with KYSE-450, less than 4.70; in the assay with HCT-116, 4.80.

As for `COc1ccc(CN(C(=O)CSC(=S)N2CCN(C(C)=O)CC2)c2cc(OC)c(OC)c(OC)c2)cc1O`, the pIC50 with MGC-803 is 6.51; in the assay with KYSE-450, 6.68; with HCT-116 it was 6.11.

Regarding `COc1ccc(CN(C(=O)CSC(=S)N2CCCc3cc(C)ccc32)c2cc(OC)c(OC)c(OC)c2)cc1`, the pIC50 with MGC-803 is 5.19; in the assay with KYSE-450, 5.28; in the assay with HCT-116, 5.28.

In the case of `COc1ccc(CN(C(=O)CSC(=S)N2CCN(Cc3ccc(C(C)(C)C)cc3)CC2)c2cc(OC)c(OC)c(OC)c2)cc1`, the pIC50 in the assay on MGC-803 was 5.27; in the assay on KYSE-450, 5.67; with HCT-116, 5.16.

On to `COc1ccc(CN(C(=O)CSC(=S)N2CCN(C(=O)OC(C)(C)C)CC2)c2cc(OC)c(OC)c(OC)c2)cc1N`, for which the pIC50 in the assay with MGC-803 is 6.74; in the assay on KYSE-450, 6.68; in the assay with HCT-116, 6.45.

With `COc1ccc(CN(C(=O)CSC(=S)N2CCN(C(=O)OC(C)(C)C)CC2)c2ccccc2)cc1`, the pIC50 in the assay on MGC-803, in the assay with KYSE-450 and in the assay on HCT-116 was less than 4.70 in each case.
